Measurements reported in a melting point compilation (Tetko et al.; mined from patent text by program, amines drawn as free bases though some values may be those of a salt).
Non-standard residues stand in square brackets, D forms with d. Residues, ends and D or L forms follow the SMILES beside them. ξ: configuration not given here. *: point of attachment. ξQ = NC(=O)CCC(N)C(=O)O; Cbz = O=C(OCc1ccccc1)*

melting point [°C]	SMILES
117 to 119	CC(c1ccc(Br)cc1)N(O)C(=O)NCCO (stereo not drawn)
87 to 89	BrCCCCCCOc1nc(-c2ccccc2)c(-c2ccccc2)n1-c1ccccc1
223 to 225	CC1=NN=C(c2ccc(NC(=O)CN)cc2)c2cc3c(cc2C1)OCO3
73	CN(Cc1cccc(-c2ccc(CC3SC(=O)NC3=O)cc2)c1)C(=O)Cc1ccccc1 (stereo not drawn)
135 to 137	CS(=O)(=O)c1ccccc1C(=O)Cl
> 250	Cc1c2c(nn1-c1ccccc1)c(=O)[nH]c1ccccc12
169 to 172	Cc1ccc(S(=O)(=O)NCCc2ccc(O)cc2)cc1
152	O=C(NC(c1ccccc1)C(O)c1ccccc1)OCc1ccccc1 (stereo not drawn)
107 to 108	CS(=O)(=O)OCCC1=C(CCOS(C)(=O)=O)c2ccccc2Sc2ccccc21
167 to 169	COC(=O)c1ccc2c(c1)NC(=O)C(CCO)O2 (stereo not drawn)
53 to 61	CS(=O)(=O)NC(=O)c1ccccc1Nc1ccc(CCCc2ccc(Cl)c(Cl)c2)cc1
> 190	CC(C)(C)N(NC(=O)c1cccs1)C(=O)c1ccccc1
184 to 185	Cc1oc2ccccc2c1C(=O)N(Cc1ccccc1)Cc1ccc2c(Br)c(O)ccc2c1
215 to 217	COc1cccc2c(=O)[nH]ccc12
136	CS(=O)(=O)c1ccc(C(=O)c2ccc(F)cc2)cc1
169 to 170	CCOC(=O)c1cccc(NC(=O)c2ccc(OC)c(Nc3cccc(C(F)(F)F)c3)c2)c1
> 300	O=C(Cn1c(=O)c(=O)[nH]c2cc([N+](=O)[O-])c(-n3cccc3)cc21)NCc1ccccc1
214 to 216	CCn1cc(C(=O)O)c(=O)c2cc(F)c(N3CCC(NS(=O)(=O)c4ccc(N)cc4)C3)c(F)c21 (stereo not drawn)
187 to 188	O=C(c1cccc(Br)c1)C(Br)C(Br)c1cc(Br)ccc1[N+](=O)[O-] (stereo not drawn)
294	Cn1ncc(C(=O)O)c1C(=O)Nc1ccc2nc(N3CCOCC3)nn2c1
129 to 134	COC(=O)CNC(=O)CNC(=O)C(CCC(N)=O)NC(=O)OCc1ccccc1 (stereo not drawn) (Cbz-[ξQ]-Gly-Gly-OMe)
106 to 108	COc1ccc(CO)nc1I
67 to 68	CC(=O)OCC[Si](c1ccccc1)(c1ccccc1)c1ccccc1
237 to 238	CC(=O)Nc1nc(-c2ccc(S(=O)(=O)COC(C)=O)cc2)cs1
135 to 142	COC(=O)c1ccccc1-c1ccc(CNc2nc(C(F)(F)F)nc3ccccc23)cc1
104 to 105	CN(CCc1ccc([N+](=O)[O-])cc1)Cc1ccc2cc([N+](=O)[O-])ccc2n1

melting point [°C]	SMILES
235 to 237	CONC(=N)c1ccc(-c2ccc(-c3ccc(C(=N)NOC)nc3)o2)cc1
79 to 81	CCC(=O)c1cc2ccccc2s1
54	O=C1c2ccsc2CCN1Cc1ccccc1
146 to 148	CCCc1c(COc2ccc(C(=O)c3cccc(C#N)c3)cc2)ccc(C(C)=O)c1O
230 to 232	Cn1ccc(=O)c(OCc2ccccc2)c1C(O)c1ccc2c(c1)OCO2 (stereo not drawn)
305	COc1ccc2nc3c(c(-c4ccc(C(F)(F)F)cc4)c2c1)CNC3=O
165	CCON=C(C(=O)OCC)c1csc(NC(c2ccccc2)(c2ccccc2)c2ccccc2)n1
158 to 159	CCc1ccnc2c([N+](=O)[O-])cc(OC)cc12
133 to 135	CN(C)CCNC(=O)N1CCN(c2ccc(Br)cc2)CC1
100 to 102	COc1cc(Cl)c(C#N)cc1C(=O)O
181	COc1cccc(CCN2C(=O)c3c(C)c(C)c(C)c(C)c3C2(O)c2ccc(F)cc2)c1 (stereo not drawn)
200 to 201	O=C(O)c1cc(Br)nn1-c1ncccc1Cl
246 to 250	CCCCCCCCCC(=O)Nc1cc(C(=O)O)ccc1C
170 to 171	CCCOc1ccccc1C1=NC(=O)C2=CN=NC2=N1
94 to 95	CCOC(=O)CCc1cccc(CNC(=O)C[C@H]2O[C@H](c3cccc(OC)c3OC)c3cc(Cl)ccc3N(CC(C)(C)CO)C2=O)c1
153 to 155	CCCCC(=O)c1c(-c2ccc3c(C)c(OCC(=O)O)ccc3c2)oc2ccccc12
120 to 122	O=C(O[C@H]1[C@H](OC(=O)c2ccccc2)[C@@H](CO)O[C@@H]1CO)c1ccccc1
146 to 148	CC1=C(C(=O)OCCCO[N+](=O)[O-])C(c2cccc([N+](=O)[O-])c2)C(C(=O)OCCNC(=O)c2ccccn2)=C(C)N1 (stereo not drawn)
216 to 219	CCCc1ccnc2c(=O)[nH]c(-c3cc(S(=O)(=O)NC)ccc3OCC)nc12
144 to 146	CCCCc1nn(-c2cc(NC(C)=O)ccc2Cl)c(=O)n1Cc1ccc(-c2cc(CCC)ccc2S(=O)(=O)NC(=O)c2ccccc2Cl)cc1F
68 to 69	OCc1ccc(Cc2ccc3c(c2)OCO3)o1
134 to 135	COc1ccc(CSc2nnc(-c3ccc4ncsc4c3)o2)cc1
39 to 40	CCCCOc1ccc(CCCCCC(=O)O)cc1
195 to 201	CC(=O)Nc1cc(C(C)(C)C)nn1C(CCN1C(=O)c2ccccc2C1=O)=NOS(=O)(=O)c1ccc(C)cc1
99.6 to 100	COc1ccc(CCNc2cc(-n3cccn3)nc(-c3cccs3)n2)cc1

More lines, now with the values behind:

SMILES	melting point [°C]
O=C(C=P(c1ccccc1)(c1ccccc1)c1ccccc1)N1CCCCC1	180 to 188
Cc1cc2occc2c(N2CCN(CC[C@H]3CC[C@H](NC(=O)CC4CCOCC4)CC3)CC2)n1	212
Cc1nc(-c2ccc3cnc(Nc4ccc(N5CCN(C)CC5)cc4)nn23)cn1C	242 to 244
O[Si](Cn1cncn1)(c1ccc(F)cc1)c1ccc(F)cc1	130 to 131
Cc1nc2sccn2c1C1=NNC(=O)NC1	293 to 295
O=C(Cc1cccc2ccccc12)NC1CCC2(O)C3Cc4ccc(O)c5c4C2(CCN3CC2CC2)C1O5 (stereo not drawn)	213 to 215
C=CCNc1nc(NCC=C)nc(N2CCN(C(=O)NCC(c3ccccc3)c3ccccc3)CC2)n1	90 to 92
O=CC(=C1NCCCS1)[N+](=O)[O-]	171 to 172
COc1c(C)oc2c(-n3c(=O)cc(C(F)(F)F)n(C)c3=O)c(F)cc(Cl)c12	57 to 60
COc1ccc(-c2cccc3nc(Nc4cc(OC)c(OC)c(OC)c4)oc23)cn1	192 to 193
COc1ccc(C2CNC(=O)O2)cc1O (stereo not drawn)	157 to 160
CCC(=O)N1C(=O)OC(C)(C)[C@@H]1C	86
C[C@@H]1Cc2cc3c(cc2C(c2ccc(N)cc2)=NN1c1ccccc1)OCO3	118 to 119
COc1ccc(-c2nc3ccc(C=Cc4ccc5nc(-c6ccc(OC)cc6)oc5c4)cc3o2)cc1	162
COC(=O)C(C)(C)Cc1c(C(=O)c2ccc(Cl)cc2)c2ccc(OC(=O)c3ccc(Cl)cc3)cc2n1C	138
CSc1ccc2nc(-c3cccc(C)c3)c(-c3ccnc(NC4CCCCC4)c3)n2n1	150 to 151
Cc1noc(NS(=O)(=O)c2ccsc2C(=O)Nc2ccccc2)c1Br	168 to 170
O=C1Nc2cc(Cl)ccc2/C1=C\c1cccc(C(F)(F)F)c1	157 to 160
O=Cc1ccc2c(c1)C(=O)OC2	134
Oc1cccc(CCN2CCCC2)c1	99 to 102
O=C(CCl)Nc1ccc2c(c1NC(=O)C1CC1)C(=O)c1ccccc1C2=O	191 to 192
CS(=O)(=O)OCC1OC2CC(CC(OS(C)(=O)=O)C2)O1 (stereo not drawn)	137 to 138
COc1cc(OC)cc(-c2ncoc2-c2cc(N)c(OC)cc2O)c1	122 to 123
Clc1ccc2[nH]c(Sc3ccccc3)c(C3=NCCN3)c2c1	178

SMILES	melting point [°C]
NC(N)=NC(=O)c1ccccc1Sc1ccccc1C(=O)N=C(N)N	> 220
CCOc1cc2c(Nc3cc(OC)c(Cl)cc3Cl)c(C#N)cnc2cc1N	230 to 233
C[C@@H]1c2cc(F)ccc2-c2ccc(F)cc2N1S(=O)(=O)c1ccc(O)cc1O	153 to 156
C=CCOc1ccc(S(=O)(=O)N2CCN(C)CC2)cc1-c1nc2c(CCC)nn(C)c2c(=O)[nH]1	151 to 153
CCOC(=O)c1cc2c(nc1C)CCCCC2	53 to 54
CC(=O)Nc1nc2cc(CN3CCN(C(c4ccccc4)c4ccccc4)CC3)ccc2n1C	202
Nc1nc(N)c(-c2cc(Cl)cc(Cl)c2Cl)c(C(Cl)(Cl)Cl)n1	226 to 227
CCc1nccn1CC1CC2c3cccc4[nH]cc(c34)CC2N(C)C1 (stereo not drawn)	232 to 237
c1coc(-c2nc3nsnc3nc2-c2ccncn2)c1	233 to 235
Cc1ccc(C(O)CN2c3nc(-c4ccncc4)cc(=O)n3CCC2c2ccccc2)cc1 (stereo not drawn)	198 to 200
CN(C)CCNC(=O)c1cc(Cl)c(N)cc1O	163 to 165
COCCn1c(C)c(C2(c3ccc(N(C)C)cc3C)OC(=O)c3ccccc32)c2ccccc21 (stereo not drawn)	205 to 207
COC(=O)[C@H]1C[C@H]2C(=O)NCCN2C1	70 to 74
Cc1c(S(=O)(=O)c2ccc(=O)[nH]n2)sc2ccc(Cl)cc12	258 to 259
NNc1nc(C(F)(F)F)c(Cl)s1	136 to 137
CN1Cc2cncn2-c2cccnc2C1=O	199 to 201
O=C1C2CCCN2C(=O)N1c1ccc([N+](=O)[O-])c2ccccc12 (stereo not drawn)	215 to 217
CC12CC(=O)NN=C1c1ccc(C#N)cc1C2 (stereo not drawn)	254
COc1cc(N2CCC(N3CCNCC3)CC2)ccc1Nc1ncc2ccc(-c3ccccc3OC)n2n1	65 to 67
O=C1NCc2c1cccc2-c1cccc2cc(Cc3cccc(C(F)(F)F)c3)sc12	195 to 196
CN(C)c1ccc2cc(Cl)cnc2c1C#N	174
CC1(C)c2c(ccc3cc(C(N)=O)c(Cn4cncn4)cc23)OC1O (stereo not drawn)	223 to 225
Clc1cccc2c(CN3CCN(c4ccc5c(c4)OCO5)CC3)n[nH]c12	173 to 174
